Source: publication PMC5119973 (Cancer Medicine, 2016)

Experiments:
[1] = target: T1, BRAF^V600E (Homo sapiens, UniProt P15056, V600E); test: KINOMEscan active-site competitive binding assay
[2] = Plasma pharmacokinetics in female NMRI Foxn1 nu/nu mice; conditions: for Calculated maximum free drug concentration: murine plasma
Procedure: Analyte concentrations were measured by high‐performance liquid chromatography using a Hewlett Packard 1100 Series system (Palo Alto, CA), with tandem mass spectrometric detection using an Applied Biosystems API 4000 (Thermo Fisher Scientific, Waltham, MA). The assay was validated according to the applicable guideline on method validation 11. The lower limit of quantitation for the assay was 2.00 μg/L, with a linear range of 2.00–20,000 μg/L using a sample volume of 100 μL.
Pharmacokinetic studies were performed in female NMRI Foxn1 nu/nu mice, supplied by Harlan‐Winkelmann GmbH (Borchen, Germany). […] Pharmacokinetic parameters, namely the AUC(0–24)ss and C max, were calculated from plasma concentrations using a noncompartmental analysis.

[3] = target: T2, RET (Homo sapiens, UniProt P07949); test: KINOMEscan active-site competitive binding assay; conditions: slash = two separate measurements
T2 construct: purchased DiscoveRx

[4] = target: T3, VEGFR2 (Homo sapiens, UniProt P35968); test: VEGFR2 autophosphorylation in HuVECs stimulated with VEGF‐A (western blot); format: cell-based; design: VEGFR2 autophosphorylation in HuVECs; endogenous in cells; host or cells: HuVEC; conditions: VEGF‐A stimulation, 0.1% bovine serum albumin, estimated from western blots, read-out: Mean ± SD IC50
Procedure: Endothelial cell assays were performed as described previously 14. In brief, HuVECs and HuLECs were grown in EBM‐2 supplemented with growth factors (Lonza, Walkersville, MD). After serum starvation for 6 h in EBM‐2 containing 0.1% BSA, 2 × 10^5 cells were treated with various concentrations of each compound for 1 h before stimulation with VEGF‐A (50 ng/mL) or VEGF‐C (200 ng/mL) for 10 min. Cells were lysed, and total cell lysates were analyzed for inhibition of phosphorylation by western blot, using antibodies against total and phosphorylated VEGFR2 and VEGFR3, ERK1/2, and AKT. Signals were detected by […] luminescence (GE Healthcare Biosciences; Pittsburgh, PA).

[5] = target: T3, VEGFR2; test: KINOMEscan active-site competitive binding assay; design: purchased DiscoveRx; conditions: slash = two separate measurements
[6] = target: T1, BRAF^V600E; test: Cellular kinase phosphorylation assay, RAT‐1/BRAF^V600E; format: cell-based; design: host or cells: RAT-1 rat fibroblasts; conditions: RAT‐1/BRAF^V600E cells; without serum; read-out: Mean ± SD IC50
[7] = target: T4, FLT3^N841I (Homo sapiens, UniProt P36888, N841I); test: KINOMEscan active-site competitive binding assay
T4 construct: purchased DiscoveRx

[8] = target: TIE‐2 (Homo sapiens, UniProt Q02763); test: KINOMEscan active-site competitive binding assay; design: purchased DiscoveRx (KINOMEscan service); conditions: data not shown
[9] = target: T5, RET^V804L (Homo sapiens, UniProt P07949, V804L); test: KINOMEscan active-site competitive binding assay
T5 construct: purchased DiscoveRx (KINOMEscan service)

[10] = target: T6, KIT^V559D,V654A (Homo sapiens, UniProt P10721, V559D/V654A); test: KINOMEscan active-site competitive binding assay
T6 construct: purchased DiscoveRx (KINOMEscan service)

[11] = target: T7, PDGFRB (Homo sapiens, UniProt P09619); test: KINOMEscan active-site competitive binding assay; conditions: slash = two separate measurements
T7 construct: purchased DiscoveRx

[12] = target: T8, KIT^A829P (Homo sapiens, UniProt P10721, A829P); test: KINOMEscan active-site competitive binding assay
T8 construct: purchased DiscoveRx

[13] = target: T9, RET^M918T (Homo sapiens, UniProt P07949, M918T); test: KINOMEscan active-site competitive binding assay
T9 construct: purchased DiscoveRx (KINOMEscan service)

[14] = target: T10, RET^V804M (Homo sapiens, UniProt P07949, V804M); test: KINOMEscan active-site competitive binding assay
T10 construct: purchased DiscoveRx (KINOMEscan service)

[15] = target: T11, FLT1 (Homo sapiens, UniProt P17948); test: KINOMEscan active-site competitive binding assay; conditions: slash = two separate measurements
T11 construct: purchased DiscoveRx (KINOMEscan service)

[16] = target: T12, KIT^D816V (Homo sapiens, UniProt P10721, D816V); test: KINOMEscan active-site competitive binding assay
T12 construct: purchased DiscoveRx

[17] = target: T3, VEGFR2; test: VEGFR2 kinase phosphorylation assay in NIH‐3T3 cells; format: cell-based; conditions: 0.1 mg/mL human serum albumin, data not shown
Procedure: TIE‐2, wt KIT, and BRAF^V600E assays were performed by ProQinase (Freiburg, Germany). Cell lines used were Chinese hamster ovary (TIE‐2 assay), human acute megakaryoblastic leukemia cell line (M07e; wt KIT assay), and rat fibroblasts (RAT‐1; BRAF^V600E assay). VEGFR2 assays were performed in murine fibroblasts (NIH‐3T3) in the presence of 0.1 mg/mL human serum albumin. KIT^K642E assays were performed in a GIST cell line (GIST882) in the presence of 0.1 mg/mL BSA. Substrate phosphorylation was determined from total cell lysates by enzyme‐linked immunosorbent assay. In addition, an FGFR phosphorylation assay was performed using a human gastric carcinoma cell line (SNU‐16), with pFGFR assessed by western blot. The PDGFRA phosphorylation assay was performed by DiscoverRx using the DiscoverRx PathHunter cell line, modified to express PDGFRA. […] The assay signal was generated using a detection reagent cocktail and measured by chemoluminescence 13. Both the PDGFRA and FGFR assays were performed in the presence of 0.1 mg/mL BSA.

[18] = M‐2‐treated mice, 10 mg/kg/day oral for 5 days
[19] = after M‐2 10 mg/kg/day oral for 5 days, total = sum of molar concentrations of regorafenib, M‐2, M‐5
[20] = after regorafenib 10 mg/kg/day oral for 5 days, total = sum of molar concentrations of regorafenib, M‐2, M‐5
[21] = after the labelled (administered) compound, 10 mg/kg/day oral for 5 days
[22] = analyte in plasma after M‐2 10 mg/kg/day oral for 5 days
[23] = analyte in plasma after M‐2 10 mg/kg/day oral for 5 days, AUC(0–24)ss
[24] = analyte in plasma after regorafenib 10 mg/kg/day oral for 5 days
[25] = analyte in plasma after regorafenib 10 mg/kg/day oral for 5 days, AUC(0–24)ss
[26] = regorafenib‐treated mice, 10 mg/kg/day oral for 5 days
[27] = analyte in plasma after M‐5 10 mg/kg/day oral for 5 days

T3 sequence (P35968 20-1356): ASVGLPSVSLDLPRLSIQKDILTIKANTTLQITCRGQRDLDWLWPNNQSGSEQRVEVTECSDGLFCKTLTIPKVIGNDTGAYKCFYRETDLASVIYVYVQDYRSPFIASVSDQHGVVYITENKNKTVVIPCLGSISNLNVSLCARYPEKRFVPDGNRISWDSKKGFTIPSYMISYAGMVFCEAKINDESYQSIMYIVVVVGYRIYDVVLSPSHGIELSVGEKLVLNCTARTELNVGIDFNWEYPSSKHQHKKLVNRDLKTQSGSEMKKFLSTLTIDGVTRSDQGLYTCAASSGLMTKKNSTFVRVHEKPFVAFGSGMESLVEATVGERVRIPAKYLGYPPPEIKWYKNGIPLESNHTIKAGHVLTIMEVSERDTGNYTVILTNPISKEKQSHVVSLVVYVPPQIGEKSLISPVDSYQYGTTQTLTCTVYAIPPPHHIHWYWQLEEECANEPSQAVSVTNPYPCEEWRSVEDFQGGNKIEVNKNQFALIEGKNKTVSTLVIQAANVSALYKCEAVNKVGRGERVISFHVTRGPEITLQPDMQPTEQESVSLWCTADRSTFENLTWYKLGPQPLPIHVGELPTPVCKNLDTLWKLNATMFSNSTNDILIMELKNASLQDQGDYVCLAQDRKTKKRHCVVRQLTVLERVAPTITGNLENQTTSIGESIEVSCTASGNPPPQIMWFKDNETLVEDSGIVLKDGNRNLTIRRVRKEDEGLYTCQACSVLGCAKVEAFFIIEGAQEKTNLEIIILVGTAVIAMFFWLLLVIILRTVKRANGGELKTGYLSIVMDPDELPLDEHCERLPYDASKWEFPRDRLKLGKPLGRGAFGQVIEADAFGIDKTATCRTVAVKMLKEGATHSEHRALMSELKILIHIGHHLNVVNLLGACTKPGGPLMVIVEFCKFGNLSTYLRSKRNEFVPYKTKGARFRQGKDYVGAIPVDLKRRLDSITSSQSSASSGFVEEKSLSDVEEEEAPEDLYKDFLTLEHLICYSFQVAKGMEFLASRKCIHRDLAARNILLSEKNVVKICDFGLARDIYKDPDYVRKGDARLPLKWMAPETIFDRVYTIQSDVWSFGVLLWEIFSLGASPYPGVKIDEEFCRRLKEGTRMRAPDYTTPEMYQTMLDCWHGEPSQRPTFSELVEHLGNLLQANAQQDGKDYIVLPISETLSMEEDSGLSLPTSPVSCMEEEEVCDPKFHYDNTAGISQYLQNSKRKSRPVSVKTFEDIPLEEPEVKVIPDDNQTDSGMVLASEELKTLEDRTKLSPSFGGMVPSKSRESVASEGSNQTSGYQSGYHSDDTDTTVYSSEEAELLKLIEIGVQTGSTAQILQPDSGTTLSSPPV
T1 sequence (P15056 whole entry V600E): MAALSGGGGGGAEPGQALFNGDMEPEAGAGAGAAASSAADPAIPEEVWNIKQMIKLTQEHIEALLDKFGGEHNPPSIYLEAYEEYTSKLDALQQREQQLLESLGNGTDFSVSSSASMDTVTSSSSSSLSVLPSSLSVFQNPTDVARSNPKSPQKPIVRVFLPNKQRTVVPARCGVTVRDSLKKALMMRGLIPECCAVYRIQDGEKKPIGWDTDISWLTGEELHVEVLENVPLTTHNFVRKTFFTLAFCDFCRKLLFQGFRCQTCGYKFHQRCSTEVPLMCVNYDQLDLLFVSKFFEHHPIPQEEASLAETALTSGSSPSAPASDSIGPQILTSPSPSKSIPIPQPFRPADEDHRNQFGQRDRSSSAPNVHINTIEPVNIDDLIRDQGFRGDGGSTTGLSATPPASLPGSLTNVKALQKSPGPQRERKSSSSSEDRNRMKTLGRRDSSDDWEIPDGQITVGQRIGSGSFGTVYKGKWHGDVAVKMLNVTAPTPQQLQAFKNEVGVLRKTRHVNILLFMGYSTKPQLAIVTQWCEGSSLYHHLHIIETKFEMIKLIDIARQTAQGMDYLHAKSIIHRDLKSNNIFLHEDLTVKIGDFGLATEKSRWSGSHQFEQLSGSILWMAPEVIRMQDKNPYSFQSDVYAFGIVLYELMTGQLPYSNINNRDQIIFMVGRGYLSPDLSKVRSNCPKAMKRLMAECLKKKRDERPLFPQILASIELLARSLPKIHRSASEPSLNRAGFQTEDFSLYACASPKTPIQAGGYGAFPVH
T8 sequence (P10721 26-976 A829P): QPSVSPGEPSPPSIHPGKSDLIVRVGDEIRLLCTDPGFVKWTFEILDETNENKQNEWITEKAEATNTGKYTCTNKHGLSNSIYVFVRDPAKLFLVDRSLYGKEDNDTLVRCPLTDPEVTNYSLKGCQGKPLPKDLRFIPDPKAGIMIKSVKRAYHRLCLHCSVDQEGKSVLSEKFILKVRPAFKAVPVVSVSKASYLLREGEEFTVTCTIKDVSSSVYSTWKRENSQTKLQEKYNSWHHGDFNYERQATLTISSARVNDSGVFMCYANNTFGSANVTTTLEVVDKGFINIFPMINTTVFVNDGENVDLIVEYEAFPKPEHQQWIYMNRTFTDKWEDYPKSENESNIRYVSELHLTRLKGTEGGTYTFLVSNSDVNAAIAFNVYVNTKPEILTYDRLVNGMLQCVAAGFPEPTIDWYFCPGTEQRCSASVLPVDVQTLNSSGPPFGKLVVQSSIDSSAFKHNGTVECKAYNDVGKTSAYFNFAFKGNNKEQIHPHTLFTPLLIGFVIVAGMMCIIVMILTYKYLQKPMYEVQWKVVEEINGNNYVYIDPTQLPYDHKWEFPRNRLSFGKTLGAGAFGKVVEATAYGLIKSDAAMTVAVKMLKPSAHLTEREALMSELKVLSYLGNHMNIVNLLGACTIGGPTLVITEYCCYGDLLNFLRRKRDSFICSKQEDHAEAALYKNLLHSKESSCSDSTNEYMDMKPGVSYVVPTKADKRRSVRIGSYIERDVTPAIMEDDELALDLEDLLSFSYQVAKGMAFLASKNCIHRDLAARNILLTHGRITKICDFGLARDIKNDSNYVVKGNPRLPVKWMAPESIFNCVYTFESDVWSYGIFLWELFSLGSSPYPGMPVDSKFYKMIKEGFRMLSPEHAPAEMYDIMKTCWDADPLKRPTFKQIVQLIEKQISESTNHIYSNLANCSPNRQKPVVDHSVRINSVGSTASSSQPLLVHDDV
T9 sequence (P07949 29-1114 M918T): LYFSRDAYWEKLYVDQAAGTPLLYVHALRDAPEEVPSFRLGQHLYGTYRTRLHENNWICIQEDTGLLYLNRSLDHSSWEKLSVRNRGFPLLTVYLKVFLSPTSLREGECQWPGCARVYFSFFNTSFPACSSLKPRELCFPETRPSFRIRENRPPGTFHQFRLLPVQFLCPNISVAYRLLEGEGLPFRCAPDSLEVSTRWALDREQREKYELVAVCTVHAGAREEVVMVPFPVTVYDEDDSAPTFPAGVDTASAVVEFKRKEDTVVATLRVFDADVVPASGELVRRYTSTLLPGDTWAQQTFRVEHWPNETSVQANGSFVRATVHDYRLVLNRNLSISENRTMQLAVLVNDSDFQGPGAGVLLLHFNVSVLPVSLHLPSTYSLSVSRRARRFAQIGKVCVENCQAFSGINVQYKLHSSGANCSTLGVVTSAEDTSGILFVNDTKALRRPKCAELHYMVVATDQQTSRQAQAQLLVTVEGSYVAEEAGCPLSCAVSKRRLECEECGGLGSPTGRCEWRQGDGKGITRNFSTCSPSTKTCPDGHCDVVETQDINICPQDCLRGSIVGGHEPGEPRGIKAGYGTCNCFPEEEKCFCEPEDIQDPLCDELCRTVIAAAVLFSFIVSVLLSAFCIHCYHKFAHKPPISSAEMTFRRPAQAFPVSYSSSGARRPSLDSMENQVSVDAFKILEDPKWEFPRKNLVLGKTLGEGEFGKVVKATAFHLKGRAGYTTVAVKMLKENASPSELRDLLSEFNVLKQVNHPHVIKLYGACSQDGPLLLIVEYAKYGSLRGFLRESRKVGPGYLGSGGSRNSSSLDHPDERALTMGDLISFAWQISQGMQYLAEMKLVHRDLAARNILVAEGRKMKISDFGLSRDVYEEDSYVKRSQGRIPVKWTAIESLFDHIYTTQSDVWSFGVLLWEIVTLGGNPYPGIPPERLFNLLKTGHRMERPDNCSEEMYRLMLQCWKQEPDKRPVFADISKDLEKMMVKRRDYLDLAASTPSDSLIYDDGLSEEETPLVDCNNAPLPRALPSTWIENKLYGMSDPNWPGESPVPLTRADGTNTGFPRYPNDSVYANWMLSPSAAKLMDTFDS
T10 sequence (P07949 29-1114 V804M): as the sequence (P07949 29-1114 M918T) above, with V776M, T890M counted along it
T2 sequence (P07949 29-1114): as the sequence (P07949 29-1114 M918T) above, with T890M counted along it
T12 sequence (P10721 26-976 D816V): as the sequence (P10721 26-976 A829P) above, with D791V, P804A counted along it
T5 sequence (P07949 29-1114 V804L): as the sequence (P07949 29-1114 M918T) above, with V776L, T890M counted along it
T6 sequence (P10721 26-976 V559D/V654A): as the sequence (P10721 26-976 A829P) above, with V534D, V629A, P804A counted along it

SMILES | Kd [1] [µM] | Share of total exposure (sum of total AUC(0–24)ss) [2, 18] [%] | AUC (% of total) [2, 19] [%] | AUC (% of total) [2, 20] [%] | AUC [2, 22] [µmol·h/L] | C max [2, 22] [ng/mL] | Cmax [2, 22] [nM] | AUC [2, 23] | AUC [2, 24] [µmol·h/L] | C max [2, 24] [ng/mL] | Cmax [2, 24] [nM] | AUC [2, 25] [µg·h/L] | Calculated maximum free drug concentration [2] [nmol/L] | Share of total exposure (sum of total AUC(0–24)ss) [2, 26] [%] | Kd [3] [µM] | IC50 [4] [µM] | Kd [5] [µM] | IC50 [6] [µM] | Kd [7] [µM] | Kd [8] [µM] | also measured
CNC(=O)c1cc(Oc2ccc(NC(=O)Nc3ccc(Cl)c(C(F)(F)F)c3)c(F)c2)cc[n+]1[O-] [M‐2] | 0.015 | 78 | 78 | 16 | 104.4 | 6150 | 12300 | 52,101 μg × h/L | 15.0 | 753 | 1500 | 7490 | 13.4 | 16 | 0.0076 | ~0.004 | 0.029 | 0.021 | 0.034 | 0.79 | Overall total C max for all three compounds [2, 21]: about 7500 μg/L; Sum of the total AUC(0–24)ss of regorafenib, M‐2 and M‐5 [2, 21]: 67,093 μg × h/L; Kd [9]: 0.013 µM; Kd [10]: 0.051 µM; Kd [11]: 0.011 µM; Kd [12]: 0.019 µM; Kd [13]: 0.0074 µM; Kd [14]: 0.02 µM; Kd [15]: 0.023 µM; Kd [16]: 0.3 µM; Inhibition of VEGFR2 activity, potency relative to regorafenib [17]: higher potency than regorafenib
NC(=O)c1cc(Oc2ccc(NC(=O)Nc3ccc(Cl)c(C(F)(F)F)c3)c(F)c2)cc[n+]1[O-] [M‐5] | 0.011 | 5 | 5 | 2 | 7.0 | 342 | 700 | 3391 µg·h/L | 1.6 | 63 | 100 | 772 | 0.5 | 2 | 0.0058 | ~0.016 | 0.031 | 0.027 | 0.023 | 1.2 | AUC (% of total) ([2]; after M‐5 10 mg/kg/day oral for 5 days, only M‐5 determined): 100%; AUC [2, 27]: 108.9 µmol·h/L; Cmax [2, 27]: 10900 nM; AUC ([2]; analyte in plasma after M‐5 10 mg/kg/day oral for 5 days, AUC(0–24)ss): 52,796 μg × h/L; Kd [9]: 0.015 µM; Kd [10]: 0.042 µM; Kd [11]: 0.011 µM; Kd [12]: 0.019 µM; Kd [13]: 0.0058 µM; Kd [14]: 0.025 µM; Kd [15]: 0.017 µM; Kd [16]: 0.31 µM; Inhibition of VEGFR2 activity, potency relative to regorafenib [17]: higher potency than regorafenib
